The results in this text go back to ChEMBL document CHEMBL1201862, “PubChem BioAssay data set” (2004).

One may read the GI50 as the concentration that inhibits growth by half.

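A five-concentration, 48-hour dose response in 96-well plates underlies each endpoint, interpolated linearly between surrounding concentrations. GI50 is the concentration that inhibits growth by half.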 Activity calls are given as the source filed them. Cut-off read from the data, not from the text of the source: active = GI50 up to about 1.1 µM and inactive = higher. Positions of bridges follow the written chain, without caps; N, C: chain ends. Residues, ends and D or L forms follow the SMILES beside them.

Holding throughout (assay): DTP human tumour cell line panel, 48 h
Assay [1] relates to A498.
The subject of assay [2] is BT-549.
Assay [3] concerns CAKI-1.
In assay [4] the test system is DU-145.
Assay [5] concerns Hs-578T.
Assay [6] deals with IGROV-1.
Assay [7] relates to K562.
The subject of assay [8] is MDA-MB-231.
Assay [9] has as its system Malme-3M.
In assay [10] the test system is OVCAR-5.
For assay [11], the system named is PC-3.
In assay [12] the test system is SF-268.
In assay [13] the test system is SK-MEL-5.
Assay [14] has as its system SR.
Assay [15] has as its system UACC-257.
The subject of assay [16] is HL-60.

Take `Cc1ccc(/C(O)=C/c2nc3ccccc3oc2=O)cc1`: the GI50 is 78.3 µM (inactive) in assay [1]; 44.4 µM (inactive) in assay [2]; > 100 µM (inactive) in assay [3]; > 100 µM (inactive) in assay [4]; 46.9 µM (inactive) in assay [5]; > 100 µM (inactive) in [6]. Besides, the GI50 is 27.4 µM (inactive) in assay [7]; > 100 µM (inactive) in assay [8]; 34.1 µM (inactive) in [9]; > 100 µM (inactive) in assay [10]; 50.1 µM (inactive) in assay [11]; > 100 µM (inactive) in assay [12]. The figures for the GI50 in assay [13], in assay [14] and in assay [15] were 19.2 µM (inactive), 26.9 µM (inactive) and > 100 µM (inactive), respectively.
`Cc1ccc(/N=C2\C(=N/c3ccc(C)cc3)N(c3ccc(C)cc3)C(=S)N2C(=O)c2ccccc2)cc1`: the GI50 in assay [2], in [3], in assay [4], in assay [5], in assay [6] and in [7] was > 100 µM (inactive) in each case. In addition, the GI50 in assay [8], in [9], in assay [10], in assay [11], in assay [12] and in assay [13] was > 100 µM (inactive) throughout. Moreover, the GI50 in assay [14] was > 100 µM (inactive); in [15] it was > 10 µM (inactive).
Turning to `C[C@]12CC[C@H](O)CC1=CC[C@@H]1C2CC[C@]2(C)c3nn(-c4ccc(F)cc4)nc3CC12` (stereo partly drawn), the GI50 was 60.1 µM (inactive) in assay [1]; 63.4 µM (inactive) in assay [2]; > 100 µM (inactive) in [3]; 88.3 µM (inactive) in assay [4]; 17.5 µM (inactive) in [16]; 39.3 µM (inactive) in [5]. The GI50 was > 100 µM (inactive) in assay [6]; 4.51 µM (inactive) in [7]; > 100 µM (inactive) in assay [8]; 74 µM (inactive) in assay [9]; 67.1 µM (inactive) in [10]; 52.2 µM (inactive) in [11]. In addition, the GI50 was 73.8 µM (inactive) in assay [12], 52.8 µM (inactive) in [13], > 100 µM (inactive) in [14] and 46.8 µM (inactive) in assay [15].
Regarding `Cc1cc(C)c2ccc(N3CCNCC3)nc2n1`, the GI50 in assay [2] is > 100 µM (inactive); in [3] it was > 100 µM (inactive); in assay [4], > 100 µM (inactive); in [16], 55.7 µM (inactive); in assay [5], > 100 µM (inactive); in assay [6], > 100 µM (inactive). The GI50 in assay [7], in assay [8], in assay [9], in assay [10], in assay [11] and in assay [12] was > 100 µM (inactive) each time. The GI50 in [14] and in [15] was > 100 µM (inactive) in each case.
For `COC(=O)[C@H](C)NC(=O)[C@H](NS(=O)(=O)c1nc2ccccc2s1)c1ccccc1`, the GI50 was 34.7 µM (inactive) in assay [2]; 32.4 µM (inactive) in assay [3]; 15.2 µM (inactive) in [4]; 39.3 µM (inactive) in [16]; 8.2 µM (inactive) in assay [5]; 49.3 µM (inactive) in [6]. Also, the GI50 in assay [7] was 94.4 µM (inactive); in [8], 25.9 µM (inactive); in [11], 38.8 µM (inactive); in [12], 15.1 µM (inactive); in assay [13], 15.8 µM (inactive); in [14], 15.6 µM (inactive). The GI50 in assay [15] is 12.9 µM (inactive).
Regarding `CC1(C)OC2C(CO)OC(n3cnc(N)nc3=O)C2O1` (stereo not drawn), the GI50 in [1], in assay [2], in [3], in assay [4], in [16] and in [5] was > 100 µM (inactive) each time. Moreover, the GI50 in [6], in [7], in assay [8], in assay [10], in assay [11] and in assay [12] was > 100 µM (inactive) throughout. The GI50 in [13], in assay [14] and in assay [15] was > 100 µM (inactive) in each case.
For `O=C(ON=C1c2ccccc2C(Br)C(Br)c2ccccc21)c1ccccc1` (stereo not drawn), the GI50 in [1] was 25.2 µM (inactive); in assay [2] it was 19.6 µM (inactive); in assay [3], 9.48 µM (inactive); in [4], 17.5 µM (inactive); in assay [16] it was 0.59 µM (active); in assay [5], 21.5 µM (inactive). Further, the GI50 in assay [6] is 2.44 µM (inactive); in assay [7] it was 2.95 µM (inactive); in assay [8] it was 16.7 µM (inactive); in assay [9] it was 20.7 µM (inactive); in assay [10], 18.8 µM (inactive); in assay [11] it was 19.8 µM (inactive). For the same compound, the GI50 in assay [12] is 20.7 µM (inactive); in [13], 17.1 µM (inactive); in [14], 3.09 µM (inactive); in [15], 15.6 µM (inactive).
Regarding `Cc1ccc(SCC(CF)OC(C)n2cnc3c(Cl)nc(N)nc32)cc1` (stereo not drawn), the GI50 in [2] was 16 µM (inactive); in [3], 84.7 µM (inactive); in assay [4], > 100 µM (inactive); in assay [16], 22.7 µM (inactive); in [5], > 100 µM (inactive); in assay [6], > 100 µM (inactive). The GI50 is 46.6 µM (inactive) in assay [8]; 93.5 µM (inactive) in [9]; > 100 µM (inactive) in [10]; 90.6 µM (inactive) in assay [11]; 96.8 µM (inactive) in assay [12]; 17.3 µM (inactive) in assay [13]. In addition, the GI50 in assay [14] is 40 µM (inactive); in [15], 19.3 µM (inactive).
`COc1ccc(-c2nc3ncccn3c2-c2ccc([S+](C)[O-])cc2)cc1` (stereo not drawn): the GI50 is > 100 µM (inactive) in [2]; 14.2 µM (inactive) in assay [3]; > 100 µM (inactive) in [4]; > 100 µM (inactive) in [16]; > 100 µM (inactive) in [5]; > 100 µM (inactive) in [6]. Moreover, the GI50 in [7] was > 100 µM (inactive); in [8], > 100 µM (inactive); in assay [10], > 100 µM (inactive); in assay [11], > 100 µM (inactive); in assay [12] it was 89.5 µM (inactive); in assay [13] it was 36.8 µM (inactive). Moreover, the GI50 was 50.7 µM (inactive) in [14] and > 100 µM (inactive) in [15].
For `NC(Cc1c[nH]c2cc([N+](=O)[O-])ccc12)C(=O)O` (stereo not drawn), the GI50 in [1] was > 100 µM (inactive); in [2] it was > 100 µM (inactive); in [3], > 100 µM (inactive); in assay [4], > 100 µM (inactive); in assay [5], > 100 µM (inactive); in assay [6], 57.4 µM (inactive). Besides, the GI50 in assay [7], in assay [8], in assay [9], in assay [10], in assay [11] and in [12] was > 100 µM (inactive) throughout. In addition, the GI50 in assay [13], in assay [14] and in assay [15] was > 100 µM (inactive) in each case.
Turning to `Cc1ccc(-c2cc(O)c3nc4ccccc4n3c2)cc1`, the GI50 in assay [1], in assay [2], in assay [3], in [4], in assay [16] and in assay [5] was > 100 µM (inactive) in each case. The GI50 in [6], in assay [7], in assay [8], in assay [9], in [11] and in assay [12] was > 100 µM (inactive) in each case. In addition, the GI50 in [14] and in assay [15] was > 100 µM (inactive) in each case.
As to `Cc1nn(C(=O)c2ccccc2O)c2c1C(c1ccc(O)cc1O)SC(=N)N2` (stereo not drawn), the GI50 in assay [1] was 3.61 µM (inactive); in [2] it was 2.52 µM (inactive); in assay [3], 4.29 µM (inactive); in assay [4], 8.28 µM (inactive); in assay [16], 5.52 µM (inactive); in assay [5], 1.91 µM (inactive). The GI50 in assay [6] was 3.48 µM (inactive); in assay [7] it was 2.63 µM (inactive); in assay [8], 5.14 µM (inactive); in assay [9], > 10 µM (inactive); in assay [10] it was 1.04 µM (active); in assay [11], 3.22 µM (inactive). The GI50 in assay [12] is 4.75 µM (inactive); in assay [13], 4.12 µM (inactive); in [14], 6.67 µM (inactive).
As to `CCC(C)C1NC(=O)C(CC(C)C)NC(=O)C(C(C)C)NC(=O)C2CSSCC(NC1=O)C(=O)N2` (stereo not drawn) (cyclo(CCVLI); disulfide 1-2; configuration not given here), the GI50 was 0.198 µM (active) in [2]; 1.74 µM (inactive) in [3]; 0.156 µM (active) in assay [4]; 0.155 µM (active) in assay [16]; 0.043 µM (active) in assay [5]; 0.165 µM (active) in assay [6]. Also, the GI50 is 0.103 µM (active) in assay [8]; 0.16 µM (active) in [10]; 0.147 µM (active) in assay [11]; 0.0387 µM (active) in [12]; 0.153 µM (active) in assay [13]; 0.178 µM (active) in assay [14]. Besides, the concentration for 50% growth inhibition (GI50) in assay [15] was 0.141 µM (active).
